Data on two molecules can be found in US20200405752A1, “ANTITUMOR AGENT, ANTITUMOR EFFECT ENHANCER, AND ANTITUMOR KIT” (FUJIFILM Corporation, priority 2018, published 2020).

Like-named read-outs stand apart in the source and are kept apart here.

For test [1] the following is noted: orally administered to mice; cited from earlier work.
Test [2] has as its system human cholangiocarcinoma cell line TFK-1 (spheroid culture). As to the kind of experiment: Cell viability (CellTiter Glo) of TFK-1 in spheroid culture in combination with cisplatin. It is filed as cell-based. As to conditions: for viability at 0.001 µM / viability at 0.003 µM / viability at 0.01 µM / viability at 0.03 µM / viability at 0.1 µM / viability at 0.3 µM / viability at 1 µM / viability at 3 µM / viability at 10 µM / IC50: Homo sapiens; for viability at 0.001 µM / viability at 0.003 µM / viability at 0.01 µM / viability at 0.03 µM / viability at 0.1 µM / viability at 0.3 µM / viability at 1 µM / viability at 3 µM / viability at 10 µM: 72 h, TFK-1 spheroid, with cisplatin 10 μmol/L, 3 days; for viability at 0.001 µM: test substance 1.0 nM; for viability at 0.003 µM: test substance 3.0 nM; for viability at 0.01 µM: test substance 10.0 nM; for viability at 0.03 µM: test substance 30.0 nM; for viability at 0.1 µM: test substance 100.0 nM; for viability at 0.3 µM: test substance 300.0 nM; for viability at 1 µM: test substance 1000.0 nM; for viability at 3 µM: test substance 3000.0 nM; for viability at 10 µM: test substance 10000.0 nM; for IC50 / CI: TFK-1 spheroid culture; for CI: combination with cisplatin. From the text:
On the combinational effect of the embodiment of the invention, the results of evaluation using a combination index (CI) which is a quantitative index of the combinational effect are shown. The CI can be calculated by the following equation according to Cancer Research, 2010, Vol. 70, pp. 440 to 446.
That is, in a case where the drugs to be used in combination are drug 1 and drug 2, the CI at a certain drug concentration is
CI={(cell viability in case of using drug 1 and drug 2 in combination)/100}/{[(cell viability in case of using drug 1)/100]×[(cell viability in case of using drug 2)/100]}
Evaluation of Antitumor Activity Against Cholangiocarcinoma Cell Line TFK-1 by Combined Use of Cisplatin in Spheroid Culture
Gemcitabine, cisplatin, and methanesulfonate of Compound A were used as test substances.
Gemcitabine hydrochloride (manufactured by Plantex Co., Ltd.) dissolved in dimethyl sulfoxide (DMSO) was used as gemcitabine. Cisplatin (Cat. #039-20091, manufactured by Wako Pure Chemical Industries, Ltd.) dissolved in DMSO was used as cisplatin.
Human cholangiocarcinoma cell line TFK-1 cells were subcultured in RPMI-1640 medium supplemented with 10% serum (Cat. #10437-028, manufactured by Thermo Fisher Scientific Inc.). During this test, all cell cultures were carried out in a CO2 incubator (set to 37° C. and 5% CO2, saturated with water vapor). The culture was diluted with 10% serum-supplemented medium to a cell density of 5000 cells/well/100 μL, and seeded on an Ultra-Low Attachment 96-well plate (Cat. #7007, manufactured by Corning Incorporated). The cells were cultured for 4 days to form spheroids.
The methanesulfonate of Compound A and gemcitabine were dissolved in DMSO to prepare 10 mmol/L DMSO solutions thereof. The thus-prepared DMSO solutions were diluted sequentially with DMSO to prepare DMSO solutions having a final treatment concentration of 1000-fold dilution. Cisplatin was dissolved in DMSO to prepare a 100 mmol/L DMSO solution. The thus-prepared DMSO solution of cisplatin was diluted with DMSO to prepare a DMSO solution having a final treatment concentration of 5000-fold dilution. Further, the DMSO solution of cisplatin was diluted with 10% serum-supplemented medium to prepare a cisplatin-containing medium having a final treatment concentration of 10-fold dilution. The DMSO diluted solutions of Compound A and gemcitabine were diluted with the cisplatin-containing medium to prepare treatment liquids having a final treatment concentration of 10-fold dilution. Compound A and gemcitabine were used with a maximum concentration of 10 μmol/L at a common ratio of 1/3 and 9 concentrations in combination with cisplatin (10 μmol/L).
10 μL of Compound A or gemcitabine diluted with the cisplatin-containing medium was added to each well. In addition, a group in which only a solvent containing no drug was added to wells in which cells were seeded (positive control), and a group in which only a solvent containing no drug was added to wells containing only a medium (negative control) were provided. All groups were set to n=3 well.
The cells were cultured for 3 days after the addition of the drug, and the cell viability was evaluated using a CellTiter Glo (registered trademark) Reagent (Cat. #G7570, manufactured by Promega Corporation) with the intracellular ATP level as an index. The concentration that inhibits cell viability by 50% (IC50 value) was calculated using XLFit software Ver.3 (registered trademark, manufactured by CTC Laboratory Systems Corporation).
The cell viability of each well was determined with the luminescence signal level of the negative control being 0% cell viability and the luminescence signal level of the positive control being 100% cell viability. The average value and standard deviation of the cell viability of each treatment group were calculated to prepare Table 9.
For orientation: ATP-based viability assays read luminescence as a measure of living cells.

Test [3] relates to pancreatic cancer patient. Particulars: cited from earlier work.

`Nc1ccn([C@@H]2S[C@H](CO)[C@@H](O)[C@@H]2F)c(=O)n1` [Compound A, 1-(2-deoxy-2-fluoro-4-thio-β-D-arabinofuranosyl)cytosine]: the antitumor activity entry in test [1] is “potent antitumor activity”. In test [2], the viability at 0.001 µM stood at 97%, the viability at 0.003 µM is 101%, the viability at 0.01 µM is 96% and the viability at 0.03 µM came to 91%. Further, in test [2], the viability at 0.1 µM amounted to 90%, the viability at 0.3 µM amounted to 65%, the viability at 1 µM came to 23% and the viability at 3 µM is 14%. In test [2], the viability at 10 µM was found to be 9% and the CI is 0.13. For the same molecule, the IC50 in test [2] (in combination with cisplatin (5 μmol/L)) amounted to 469 nM.

Take `Nc1ccn([C@@H]2O[C@H](CO)[C@@H](O)C2(F)F)c(=O)n1` [Gemcitabine]: in test [3] (combination with cisplatin), the median survival time was 7.5 months and the response rate is 11.5%. Moreover, in test [3] (combination with oxaliplatin), the median survival time is 5.7 months and the response rate is reported as 9%. Besides, in test [2], the viability at 0.001 µM was determined as 97%, the viability at 0.003 µM came to 97%, the viability at 0.01 µM was found to be 97% and the viability at 0.03 µM worked out at 89%. In test [2], the viability at 0.1 µM was determined as 90%, the viability at 0.3 µM turned out to be 83%, the viability at 1 µM amounted to 83% and the viability at 3 µM is 77%. In test [2], the viability at 10 µM came out at 66% and the CI stood at 0.78. Further, the IC50 in test [2] (in combination with cisplatin (10 μmol/L)) is ≥ 10000 nM.

For orientation: viability means a read-out of living cells in per cent, often relative to untreated cells. As a reminder, the IC50 is the concentration at which inhibition is half-maximal.
